Publication PMC4574636 (Biochemical pharmacology, 2015)
Changes are numbered by the printed parent chain.

Experiments:
AOX1 = molecular target: T1, AOX1 (Homo sapiens, UniProt Q06278); details: human liver cytosol
T1 sequence (Q06278 1-1338): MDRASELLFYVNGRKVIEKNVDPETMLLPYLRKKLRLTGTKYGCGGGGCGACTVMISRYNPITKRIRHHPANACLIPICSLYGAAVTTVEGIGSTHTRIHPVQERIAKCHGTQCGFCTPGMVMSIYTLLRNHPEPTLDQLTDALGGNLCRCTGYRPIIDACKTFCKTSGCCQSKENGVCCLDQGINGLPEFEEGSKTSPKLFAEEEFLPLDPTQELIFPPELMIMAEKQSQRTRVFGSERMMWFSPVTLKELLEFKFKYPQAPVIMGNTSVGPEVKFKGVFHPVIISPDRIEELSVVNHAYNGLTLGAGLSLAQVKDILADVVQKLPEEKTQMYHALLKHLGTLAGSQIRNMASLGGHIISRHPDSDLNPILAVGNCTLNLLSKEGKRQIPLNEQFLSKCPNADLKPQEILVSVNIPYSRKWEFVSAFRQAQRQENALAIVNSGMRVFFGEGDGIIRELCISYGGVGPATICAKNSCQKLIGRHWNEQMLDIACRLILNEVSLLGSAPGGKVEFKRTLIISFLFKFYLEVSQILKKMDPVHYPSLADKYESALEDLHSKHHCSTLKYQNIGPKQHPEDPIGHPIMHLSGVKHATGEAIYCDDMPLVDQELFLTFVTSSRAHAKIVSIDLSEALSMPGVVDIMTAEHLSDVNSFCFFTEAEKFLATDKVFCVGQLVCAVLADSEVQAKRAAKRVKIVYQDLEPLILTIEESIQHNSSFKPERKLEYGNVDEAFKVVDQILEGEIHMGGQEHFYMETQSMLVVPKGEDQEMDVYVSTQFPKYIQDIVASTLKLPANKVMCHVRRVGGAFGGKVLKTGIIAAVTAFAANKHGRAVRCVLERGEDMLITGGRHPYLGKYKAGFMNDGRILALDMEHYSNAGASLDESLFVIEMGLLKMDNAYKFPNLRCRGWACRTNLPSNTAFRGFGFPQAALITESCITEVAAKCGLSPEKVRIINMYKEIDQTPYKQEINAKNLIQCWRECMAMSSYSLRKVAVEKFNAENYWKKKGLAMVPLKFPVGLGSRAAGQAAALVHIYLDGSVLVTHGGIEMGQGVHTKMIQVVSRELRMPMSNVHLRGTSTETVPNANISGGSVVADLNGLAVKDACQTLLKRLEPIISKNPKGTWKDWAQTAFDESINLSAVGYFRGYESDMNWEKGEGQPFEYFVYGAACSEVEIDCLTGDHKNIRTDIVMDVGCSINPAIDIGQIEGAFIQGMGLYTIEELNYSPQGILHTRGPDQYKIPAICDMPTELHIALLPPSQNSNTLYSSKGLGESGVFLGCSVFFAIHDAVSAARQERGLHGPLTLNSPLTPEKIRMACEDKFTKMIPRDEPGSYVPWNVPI

[1] = molecular target: T2, human AOX1 I1085A+ V1016R (Homo sapiens, UniProt Q06278, I1085A/V1016R); details: I1085A+ V1016R double mutant, Figure 5
T2 sequence (Q06278 1-1338 V1016R/I1085A): T1 sequence (Q06278 1-1338) with V1016R, I1085A

Structure (SMILES): CN(Cc1cnc2nc(N)nc(N)c2n1)c1ccc(C(=O)N[C@@H](CCC(=O)O)C(=O)O)cc1 [Methotrexate, 4-amino-N^1^0-methylpteroglutamic acid]
- kcat (Vmax/[AOX1]) (AOX1; calculated from Vmax and AOX1 level (figure 1A)): 0.04 s⁻¹
- In vitro CLint AOX1 (AOX1; from specific activity and Km): 0.9 min^− 1mM^−1
- Km / affinity vs wild type [1]: decreased affinity for methotrexate compared to wild type AOX1
- Methotrexate hydroxylation activity [1]: significant decrease in activity compared to the wild type and I1085A
